ChEMBL document CHEMBL1201861, “Genomics of Drug Sensitity in Cancer screening data, Wellcome Trust Sanger Institute”

Legend:
Assay in all cases: cells
COLO-741 = assay type: functional, cell-based, Homo sapiens; details: Homo sapiens, COLO-741
Description: SANGER: Inhibition of human COLO-741 cell growth in a cell viability assay.

COLO-800 = assay type: functional, cell-based, Homo sapiens; details: Homo sapiens, COLO-800;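 note: growth inhibition of COLO-800 cells, read out with a cell viability assay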
Description: SANGER: Inhibition of human COLO-800 cell growth in a cell viability assay.

CP66-MEL = assay type: functional, cell-based, Homo sapiens; details: Homo sapiens, CP66-MEL;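 note: growth inhibition of CP66-MEL cells determined in a cell viability assay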
Description: SANGER: Inhibition of human CP66-MEL cell growth in a cell viability assay.

DBTRG-05MG = assay type: functional, cell-based, Homo sapiens; details: Homo sapiens, DBTRG-05MG;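 note: cell viability assay measuring growth inhibition of human DBTRG-05MG cells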
Description: SANGER: Inhibition of human DBTRG-05MG cell growth in a cell viability assay.

DU-4475 = assay type: functional, cell-based; details: Homo sapiens
Description: SANGER: Inhibition of human DU-4475 cell growth in a cell viability assay.

EFO-27 = assay type: functional, cell-based, Homo sapiens; details: Homo sapiens, EFO-27;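 note: growth inhibition of EFO-27 cells, read out with a cell viability assay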
Description: SANGER: Inhibition of human EFO-27 cell growth in a cell viability assay.

GB-1 = assay type: functional, cell-based, Homo sapiens; details: Homo sapiens, GB-1;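 note: growth of GB-1 cells judged by a viability assay, IC50 marks the concentration inhibiting growth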
Description: SANGER: Inhibition of human GB-1 cell growth in a cell viability assay.

GP5d = assay type: functional, cell-based, Homo sapiens; details: Homo sapiens, GP5d;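 note: growth inhibition of human GP5d cells, read out with a cell viability assay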
Description: SANGER: Inhibition of human GP5d cell growth in a cell viability assay.

HAL-01 = assay type: functional, cell-based; details: Homo sapiens;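 note: growth inhibition of human HAL-01 cells, read out with a cell viability assay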
Description: SANGER: Inhibition of human HAL-01 cell growth in a cell viability assay.

HCC2157 = assay type: functional, cell-based; details: Homo sapiens;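 note: growth inhibition of the cancer cell line, read out as cell viability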
Description: SANGER: Inhibition of human HCC2157 cell growth in a cell viability assay.

HDLM-2 = assay type: functional, cell-based; details: Homo sapiens;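 note: cell viability assay measuring suppression of HDLM-2 proliferation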
Description: SANGER: Inhibition of human HDLM-2 cell growth in a cell viability assay.

HT-1080 = assay type: functional, cell-based, Homo sapiens; details: Homo sapiens, HT-1080
Description: SANGER: Inhibition of human HT-1080 cell growth in a cell viability assay.

KNS-81-FD = assay type: functional, cell-based, Homo sapiens; details: Homo sapiens, KNS-81-FD;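 note: growth inhibition of KNS-81-FD cells, read out with a cell viability assay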
Description: SANGER: Inhibition of human KNS-81-FD cell growth in a cell viability assay.

KP-N-YN = assay type: functional, cell-based; details: Homo sapiens;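 note: growth inhibition of KP-N-YN cells, read out with a cell viability assay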
Description: SANGER: Inhibition of human KP-N-YN cell growth in a cell viability assay.

KU-19-19 = assay type: functional, cell-based, Homo sapiens; details: Homo sapiens, KU-19-19
Description: SANGER: Inhibition of human KU-19-19 cell growth in a cell viability assay.

KYSE-140 = assay type: functional, cell-based, Homo sapiens; details: Homo sapiens, KYSE-140;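 note: cell viability assay measuring growth inhibition in human KYSE-140 cells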
Description: SANGER: Inhibition of human KYSE-140 cell growth in a cell viability assay.

KYSE-510 = assay type: functional, cell-based, Homo sapiens; details: Homo sapiens, KYSE-510;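 note: cell viability readout used to measure how strongly growth of the cell line is suppressed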
Description: SANGER: Inhibition of human KYSE-510 cell growth in a cell viability assay.

LC-2-ad = assay type: functional, cell-based, Homo sapiens; details: Homo sapiens, LC-2-ad;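 note: growth inhibition of human LC-2-ad cells, read out with a cell viability assay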
Description: SANGER: Inhibition of human LC-2-ad cell growth in a cell viability assay.

LK-2 = assay type: functional, cell-based, Homo sapiens; details: Homo sapiens, LK-2;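 note: growth inhibition of LK-2 cells, read out with a viability assay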
Description: SANGER: Inhibition of human LK-2 cell growth in a cell viability assay.

LU-139 = assay type: functional, cell-based; details: Homo sapiens
Description: SANGER: Inhibition of human LU-139 cell growth in a cell viability assay.

M059J = assay type: functional, cell-based, Homo sapiens; details: Homo sapiens, M059J;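 note: growth inhibition of M059J cells, read out with a cell viability assay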
Description: SANGER: Inhibition of human M059J cell growth in a cell viability assay.

MC-IXC = assay type: functional, cell-based, Homo sapiens; details: Homo sapiens, MC-IXC;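 note: growth inhibition of MC-IXC cells, read out with a cell viability assay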
Description: SANGER: Inhibition of human MC-IXC cell growth in a cell viability assay.

MeWo = assay type: functional, cell-based, Homo sapiens; details: Homo sapiens, MeWo;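 note: growth inhibition of MeWo cells, determined by a cell viability readout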
Description: SANGER: Inhibition of human Mewo cell growth in a cell viability assay.

Mo = assay type: functional, cell-based; details: Homo sapiens
Description: SANGER: Inhibition of human Mo-T cell growth in a cell viability assay.

NB12 = assay type: functional, cell-based, Homo sapiens; details: Homo sapiens, NB12;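 note: growth inhibition of human NB12 cells, read out by a cell viability assay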
Description: SANGER: Inhibition of human NB12 cell growth in a cell viability assay.

NB7 = assay type: functional, cell-based; details: Homo sapiens;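 note: growth inhibition of NB7 cells, read out with a cell viability assay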
Description: SANGER: Inhibition of human NB7 cell growth in a cell viability assay.

NCI-H1304 = assay type: functional, cell-based; details: Homo sapiens;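 note: growth inhibition of the cancer cell line, measured in a cell viability assay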
Description: SANGER: Inhibition of human NCI-H1304 cell growth in a cell viability assay.

NCI-H1563 = assay type: functional, cell-based, Homo sapiens; details: Homo sapiens, NCI-H1563;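 note: growth inhibition of human NCI-H1563 cells, read out with a cell viability assay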
Description: SANGER: Inhibition of human NCI-H1563 cell growth in a cell viability assay.

NEC8 = assay type: functional, cell-based, Homo sapiens; details: Homo sapiens, NEC8;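 note: growth inhibition of human NEC8 cells, read out by a cell viability assay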
Description: SANGER: Inhibition of human NEC8 cell growth in a cell viability assay.

NH-12 = assay type: functional, cell-based, Homo sapiens; details: Homo sapiens, NH-12;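 note: growth inhibition of NH-12 cells, read out with a cell viability assay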
Description: SANGER: Inhibition of human NH-12 cell growth in a cell viability assay.

OE33 = assay type: functional, cell-based, Homo sapiens; details: Homo sapiens, OE33;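 note: growth inhibition of human OE33 cells, measured by a cell viability assay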
Description: SANGER: Inhibition of human OE33 cell growth in a cell viability assay.

OS-RC-2 = assay type: functional, cell-based, Homo sapiens; details: Homo sapiens, OS-RC-2;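 note: growth inhibition of human OS-RC-2 cells, measured by a cell viability assay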
Description: SANGER: Inhibition of human OS-RC-2 cell growth in a cell viability assay.

OVCAR-5 = assay type: functional, cell-based, Homo sapiens; details: Homo sapiens, OVCAR-5;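 note: growth inhibition of human OVCAR-5 cells, read out with a cell viability assay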
Description: SANGER: Inhibition of human OVCAR-5 cell growth in a cell viability assay.

PA-1 = assay type: functional, cell-based, Homo sapiens; details: Homo sapiens, PA-1;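 note: IC50 for suppression of PA-1 cell proliferation, determined with a cell viability read-out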
Description: SANGER: Inhibition of human PA-1 cell growth in a cell viability assay.

PSN1 = assay type: functional, cell-based, Homo sapiens; details: Homo sapiens, PSN1;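 note: suppression of growth of human PSN1 cells, read out by a cell viability assay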
Description: SANGER: Inhibition of human PSN1 cell growth in a cell viability assay.

RVH-421 = assay type: functional, cell-based, Homo sapiens; details: Homo sapiens, RVH-421
Description: SANGER: Inhibition of human RVH-421 cell growth in a cell viability assay.

SCC-4 = assay type: functional, cell-based, Homo sapiens; details: Homo sapiens, SCC-4;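 note: growth inhibition of human SCC-4 cells, read out as cell viability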
Description: SANGER: Inhibition of human SCC-4 cell growth in a cell viability assay.

SCH = assay type: functional, cell-based, Homo sapiens; details: Homo sapiens, SCH;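 note: growth inhibition of human SCH cells, read out in a cell viability assay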
Description: SANGER: Inhibition of human SCH cell growth in a cell viability assay.

SK-HEP1 = assay type: functional, cell-based, Homo sapiens, SK-HEP-1; details: Homo sapiens, SK-HEP1;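 note: cell viability readout used to quantify reduction in proliferation of human SK-HEP-1 cells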
Description: SANGER: Inhibition of human SK-HEP-1 cell growth in a cell viability assay.

SK-LMS-1 = assay type: functional, cell-based, Homo sapiens; details: Homo sapiens, SK-LMS-1;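 note: growth inhibition of human SK-LMS-1 cells, read out with a cell viability assay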
Description: SANGER: Inhibition of human SK-LMS-1 cell growth in a cell viability assay.

SK-OV-3 = assay type: functional, cell-based, Homo sapiens; details: Homo sapiens, SK-OV-3;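 note: growth inhibition of SK-OV-3 human cells, read out with a cell viability assay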
Description: SANGER: Inhibition of human SK-OV-3 cell growth in a cell viability assay.

SN12C = assay type: functional, cell-based, Homo sapiens; details: Homo sapiens, SN12C;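 note: growth inhibition of human SN12C cells, measured by a cell viability assay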
Description: SANGER: Inhibition of human SN12C cell growth in a cell viability assay.

ACN = assay type: functional, cell-based, Homo sapiens; details: Homo sapiens, ACN;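 note: growth inhibition of the human ACN cell line, read out via cell viability testing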
Description: SANGER: Inhibition of human ACN cell growth in a cell viability assay.

AN3-CA = assay type: functional, cell-based; details: Homo sapiens;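 note: growth inhibition of human AN3-CA cells measured by a cell viability assay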
Description: SANGER: Inhibition of human AN3-CA cell growth in a cell viability assay.

BV-173 = assay type: functional, cell-based; details: Homo sapiens
Description: SANGER: Inhibition of human BV-173 cell growth in a cell viability assay.

CAL-33 = assay type: functional, cell-based, Homo sapiens; details: Homo sapiens, CAL-33;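 note: growth inhibition of CAL-33 cells, read out with a cell viability assay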
Description: SANGER: Inhibition of human CAL-33 cell growth in a cell viability assay.

CAL-39 = assay type: functional, cell-based, Homo sapiens; details: Homo sapiens, CAL-39;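 note: cell viability assay measuring growth inhibition of CAL-39 cells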
Description: SANGER: Inhibition of human CAL-39 cell growth in a cell viability assay.

CAL-54 = assay type: functional, cell-based, Homo sapiens; details: Homo sapiens, CAL-54;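 note: growth inhibition of CAL-54 cells, read out by a viability measurement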
Description: SANGER: Inhibition of human CAL-54 cell growth in a cell viability assay.

TE-12 = assay type: functional, cell-based; details: Homo sapiens;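 note: growth inhibition of TE-12 cells, read out by a cell viability assay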
Description: SANGER: Inhibition of human TE-12 cell growth in a cell viability assay.

TE-5 = assay type: functional, cell-based, Homo sapiens; details: Homo sapiens, TE-5;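 note: inhibition of cell growth, read out by a cell viability assay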
Description: SANGER: Inhibition of human TE-5 cell growth in a cell viability assay.

WM-115 = assay type: functional, cell-based, Homo sapiens; details: Homo sapiens, WM-115
Description: SANGER: Inhibition of human WM-115 cell growth in a cell viability assay.

CAPAN-1 = assay type: functional, cell-based, Homo sapiens; details: Homo sapiens, CAPAN-1;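 note: growth suppression of CAPAN-1 cells, read out by a cell viability assay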
Description: SANGER: Inhibition of human CAPAN-1 cell growth in a cell viability assay.

Measured: IC50

CC(=O)O[C@@H]1[C@@H](OC(C)=O)[C@@H](O)[C@H](Oc2c(-c3ccc(O)cc3)oc3cc(O)cc(O)c3c2=O)O[C@H]1C
5.65 µM: HCC2157
7.65 µM: DU-4475
3.01 µM: BV-173
> 10 µM: COLO-741 | COLO-800 | CP66-MEL | DBTRG-05MG | EFO-27 | GB-1 | GP5d | HAL-01 | HDLM-2 | HT-1080 | KNS-81-FD | KP-N-YN | KU-19-19 | KYSE-140 | KYSE-510 | LC-2-ad | LK-2 | LU-139 | M059J | MC-IXC | MeWo | Mo | NB12 | NB7 | NCI-H1304 | NCI-H1563 | NEC8 | NH-12 | OE33 | OS-RC-2 | OVCAR-5 | PA-1 | PSN1 | RVH-421 | SCC-4 | SCH | SK-HEP1 | SK-LMS-1 | SK-OV-3 | SN12C | ACN | AN3-CA | CAL-33 | CAL-39 | CAL-54 | TE-12 | TE-5 | WM-115 | CAPAN-1

COc1ccc(-c2ccc3c(N4CCOC[C@@H]4C)nc(N4CCOC[C@@H]4C)nc3n2)cc1CO [AZD-8055]
1.09 µM: MeWo
0.0233 µM: LU-139
1.11 µM: NH-12
0.523 µM: CAL-39
0.68 µM: EFO-27
0.771 µM: PSN1
0.789 µM: NCI-H1563
0.525 µM: HT-1080
0.417 µM: NEC8
0.865 µM: CAL-33
0.585 µM: SCC-4
0.782 µM: KYSE-140
0.268 µM: LK-2
0.429 µM: OVCAR-5
0.851 µM: KU-19-19
0.0805 µM: DU-4475
1.89 µM: KNS-81-FD
1.03 µM: SCH
0.698 µM: COLO-800
1.83 µM: CAL-54
0.727 µM: MC-IXC
0.799 µM: OE33
0.943 µM: ACN
1.21 µM: HDLM-2
0.0795 µM: AN3-CA
0.636 µM: RVH-421
0.807 µM: SN12C
0.336 µM: PA-1
1.08 µM: OS-RC-2
0.684 µM: TE-5
0.0906 µM: BV-173
> 2 µM: COLO-741 | DBTRG-05MG | GB-1 | GP5d | HCC2157 | KP-N-YN | KYSE-510 | M059J | Mo | NB12 | NB7 | NCI-H1304 | SK-HEP1 | CAPAN-1
0.689 µM: WM-115
0.203 µM: HAL-01
0.672 µM: SK-OV-3
1.41 µM: TE-12
0.221 µM: LC-2-ad

O=c1cc(-c2cccc3c2Sc2ccccc2S3)oc(N2CCOCC2)c1 [KU-55933]
> 10 µM: COLO-741 | COLO-800 | CP66-MEL | DBTRG-05MG | DU-4475 | EFO-27 | GB-1 | GP5d | HAL-01 | HCC2157 | HDLM-2 | HT-1080 | KNS-81-FD | KP-N-YN | KU-19-19 | KYSE-140 | KYSE-510 | LC-2-ad | LK-2 | M059J | MC-IXC | MeWo | Mo | NB12 | NB7 | NCI-H1304 | NCI-H1563 | NEC8 | NH-12 | OE33 | OS-RC-2 | OVCAR-5 | PA-1 | PSN1 | RVH-421 | SCC-4 | SCH | SK-HEP1 | SK-LMS-1 | SK-OV-3 | SN12C | ACN | AN3-CA | CAL-33 | CAL-39 | CAL-54 | TE-12 | TE-5 | WM-115 | CAPAN-1

COc1ccc(C2=N[C@@H](c3ccc(Cl)cc3)[C@@H](c3ccc(Cl)cc3)N2C(=O)N2CCNC(=O)C2)c(OC(C)C)c1 [NUTLIN-3]
1.22 µM: NEC8
2.84 µM: BV-173
> 8 µM: COLO-741 | COLO-800 | DBTRG-05MG | EFO-27 | GB-1 | GP5d | HAL-01 | HCC2157 | HDLM-2 | KP-N-YN | KU-19-19 | KYSE-140 | KYSE-510 | LC-2-ad | LK-2 | LU-139 | M059J | MC-IXC | MeWo | Mo | NB12 | NB7 | NCI-H1304 | NCI-H1563 | OE33 | OVCAR-5 | PSN1 | SCC-4 | SCH | SK-OV-3 | SN12C | ACN | AN3-CA | CAL-33 | CAL-39 | TE-12 | TE-5 | CAPAN-1
6.42 µM: RVH-421
6.93 µM: WM-115
0.871 µM: PA-1
2.8 µM: DU-4475
4.53 µM: CAL-54
5.74 µM: OS-RC-2
7.48 µM: HT-1080
4.02 µM: NH-12
3.74 µM: SK-HEP1
6.76 µM: KNS-81-FD
